Measured values taken from patent publication US8629147B2, “Heterocyclic compounds useful in the treatment of neoplastic diseases, inflammatory disorders and immunomodulatory disorders” (ChemBridge Corporation, priority 2005, dated 2014).
pIC50: −log10 of the molar value.

How the values were obtained:
[1] = biological target: T1, human IGF1R kinase domain (Homo sapiens, UniProt P08069); assay: IGF1R tyrosine phosphorylation inhibition, Alphascreen phosphotyrosine PT66 assay; assay type: biochemical; details: recombinant kinase domain, 1 hour co-incubation, 20 to 0.1 μM
T1 construct: human IGF1R precursor protein corresponding to the amino acids positions 974 through 1293; 6xHis; made in house; host or cells: SF9 insect cells, recombinant baculovirus (Bac-to-Bac System)
Procedure: Inhibition of IGF1R tyrosine phosphorylation was measured in the Alphascreen phosphotyrosine PT66 assay kit (Perkin Elmer Life sciences, Catalog number 6760602) according to the manufacturer's instructions. As a source of enzymatically active IGF1r kinase for this assay, SF9 insect cells were infected with recombinant baculovirus (Bac-to-Bac System, Invitrogen, Carlsbad, Calif.) encoding 6×His-tagged kinase domain portion of human IGF1R precursor protein corresponding to the amino acids positions 974 through 1293 (Abbott et al., 1992, J. Biol. Chem. 267:10759-10763) and recombinant kinase protein was purified to homogeneity using two-step chromatography on immobilized Ni^2+ resin (Ni-NTA) and ion-exchange Q-Sepharose column. Biotinylated poly glu-tyr 4:1 (CIS bio-international, catalog number 61GT0BLA) was used for the kinase substrate. Compounds were serially diluted to give a concentration range from 20 to 0.1 μM and co-incubated with IGF1r kinase, biotinylated peptide substrate and alphascreen components for 1 hour and then read in a Perkin-Elmer alphafusion plate reader. A plot of counts per minute versus log concentration of compounds was fitted to a sigmoidal dose response curve using Graphpad Prism software to generate IC50 values (see FIG. 1 for an example).

[2] = test system: MCF7 human breast tumor cells; assay: CellTiter-Glo luminescent cell viability assay, MCF7; assay type: cell-based; details: 48 hours, 20 to 0.1 μM
Procedure: (§1) Cell viability of either MCF7 human breast tumor cells (American Type Culture Collection catalog #HTB 22) or NCI-H929 human plasmacytoma cells (ATCC catalog #CRL-9068) was assessed using the Promega CellTiter-Glo luminescent cell viability assay according to manufacturer's instructions. In brief, cells were plated at 10,000 cells per well in a clear bottom white 96 well microtiter plate (Costar catalog #3604) in 100 μL of cell growth medium. Compounds were then added to the cells to give final concentrations of compound ranging from 20 to 0.1 μM. Cells were incubated 48 hours after which 100 μL per well of celltiter-glo reagent was added and luminescence was measured in a BMG polarstar plate luminometer. A plot of counts per minute versus log concentration of compounds was fitted to a sigmoidal dose response curve using Graphpad Prism software to generate IC50 values.

[3] = test system: NCI-H929 human plasmacytoma cells; assay: CellTiter-Glo luminescent cell viability assay, NCI-H929; assay type: cell-based; details: 48 hours, 20 to 0.1 μM
Procedure: as §1

[4] = biological target: T2, recombinant TrkA kinase domain (Homo sapiens, UniProt P04629); assay: TrkA tyrosine kinase activity inhibition, Alphascreen phosphotyrosine PT66 assay; assay type: biochemical; details: compounds 10 to 0.005 μM, 1 hour incubation
T2 construct: commercial preparation of recombinant TrkA kinase domain; purchased Upstate Cell Signaling 14-571
Procedure: Inhibition of TrkA tyrosine kinase activity was measured using the Alphascreen phosphotyrosine PT66 assay kit (Perkin Elmer Life Sciences, Catalog Number 6760602) according to the manufacturer's instructions. As a source of enzymatically active TrkA kinase for this assay, the commercial preparation of recombinant TrkA kinase domain (Upstate Cell Signaling, Catalog Number 14-571) was used. Biotinylated poly Glu-Tyr 4:1 (CIS bio-international, catalog number 61GT0BLA) was used for the kinase substrate. Compounds were serially diluted to give a concentration range from 10 to 0.005 μM and co-incubated with TrkA kinase, biotinylated peptide substrate and Alphascreen kit components for 1 hour and then read in a Perkin-Elmer Alpha Fusion plate reader. A plot of counts per minute versus log concentration of compounds was fitted to a sigmoidal dose response curve using Graphpad Prism software to generate IC50 values.

T1 sequence (P08069 974-1293): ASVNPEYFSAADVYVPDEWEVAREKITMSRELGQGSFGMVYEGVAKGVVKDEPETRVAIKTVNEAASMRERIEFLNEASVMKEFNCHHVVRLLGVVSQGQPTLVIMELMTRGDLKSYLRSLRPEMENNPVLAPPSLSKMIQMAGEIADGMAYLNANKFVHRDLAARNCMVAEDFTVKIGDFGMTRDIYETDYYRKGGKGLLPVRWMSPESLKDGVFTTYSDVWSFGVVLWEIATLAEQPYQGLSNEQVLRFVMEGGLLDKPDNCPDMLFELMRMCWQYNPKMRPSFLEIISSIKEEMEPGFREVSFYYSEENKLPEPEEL
T2 sequence (P04629 510-781 limits assumed): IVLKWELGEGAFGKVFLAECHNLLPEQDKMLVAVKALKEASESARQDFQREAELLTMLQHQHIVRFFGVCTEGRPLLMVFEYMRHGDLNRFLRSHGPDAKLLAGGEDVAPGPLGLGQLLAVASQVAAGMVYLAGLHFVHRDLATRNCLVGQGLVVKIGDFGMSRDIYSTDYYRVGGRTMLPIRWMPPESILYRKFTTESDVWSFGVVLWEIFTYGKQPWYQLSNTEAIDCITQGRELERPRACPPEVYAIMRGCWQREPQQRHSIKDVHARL

Structure (SMILES) | pIC50 [1] | pIC50 [2] | pIC50 [3] | pIC50 [4]
CC1CCN(CCc2ccc(NC(=O)c3cn(-c4cccc(-c5ccc(N(C)C)cc5)n4)nc3N)cc2)CC1 | ≥ 5.30 | 5.00 to 5.30 | 5.00 to 5.30 | 
CCN(CC)CCOc1ccc(NC(=O)c2cn(-c3ncc4c(n3)-c3ccccc3OC4)nc2N)cc1 | ≥ 5.30 |  | < 4.60 | 
CN1CCN(CCc2ccc(NC(=O)c3cn(-c4nccc(-c5ccc(N(C)C)cc5)n4)nc3N)cc2)CC1 | ≥ 5.30 | 4.82 to 5.00 | 5.00 to 5.30 | 
CN1CCN(CCc2ccc(NC(=O)c3ccc4nc(-c5nc6ccccc6[nH]5)[nH]c4c3)cc2)CC1 | ≥ 5.30 | < 4.60 | 5.00 to 5.30 | 
COc1ncccc1-c1ccc(O)c(-c2nc3ccc(C(=O)NC4CCCC(N)C4)cc3[nH]2)c1 (stereo not drawn) |  |  |  | < 6.70
COc1ncccc1-c1ccc(O)c(-c2nc3ccc(C(=O)NCC4CCN(Cc5ccccc5)C4)cc3[nH]2)c1 (stereo not drawn) |  |  |  | 6.70 to 7.70
COc1ncccc1-c1ccc(O)c(-c2nc3ccc(C(=O)NCCc4c[nH]cn4)cc3[nH]2)c1 |  |  |  | 6.70 to 7.70
COCCN1CCC(CNC(=O)c2ccc3nc(-c4cc(-c5cccnc5OC)ccc4O)[nH]c3c2)C1 (stereo not drawn) |  |  |  | 6.70 to 7.70
COc1ncccc1-c1ccc(O)c(-c2nc3ccc(C(=O)NCC4CCN(CCO)CC4)cc3[nH]2)c1 |  |  |  | > 7.70
COc1ncccc1-c1ccc(O)c(-c2nc3ccc(C(=O)NCCC4CCCN4C)cc3[nH]2)c1 (stereo not drawn) |  |  |  | 6.70 to 7.70
COc1ncccc1-c1ccc(O)c(-c2nc3ccc(C(=O)NCCCN4CCCCC4C)cc3[nH]2)c1 (stereo not drawn) |  |  |  | > 7.70
CCN(CC)CCCNC(=O)c1ccc2nc(-c3cc(-c4cccnc4OC)ccc3O)[nH]c2c1 |  |  |  | > 7.70
COc1ncccc1-c1ccc(O)c(-c2nc3ccc(C(=O)NCC4CCCC(CN)C4)cc3[nH]2)c1 (stereo not drawn) |  |  |  | < 6.70
COc1ncccc1-c1ccc(O)c(-c2nc3ccc(C(=O)NCCCCCN(C)C)cc3[nH]2)c1 |  |  |  | < 6.70
COc1ncccc1-c1ccc(O)c(-c2nc3cc(C(=O)NCCc4c[nH]cn4)c(F)cc3[nH]2)c1 |  |  |  | > 7.70
COC(=O)[C@H](Cc1c[nH]cn1)NC(=O)c1ccc2[nH]c(-c3cc(-c4cccnc4OC)ccc3O)nc2c1 |  |  |  | 6.70 to 7.70
COc1ncccc1-c1ccc(O)c(-c2nc3cc(C(=O)N[C@@H](Cc4c[nH]cn4)C(N)=O)ccc3[nH]2)c1 |  |  |  | > 7.70
COc1ncccc1-c1ccc(O)c(-c2nc3cc(C(=O)N[C@H](CO)Cc4c[nH]cn4)ccc3[nH]2)c1 |  |  |  | > 7.70
COc1ncccc1-c1ccc(O)c(-c2nc3cc(C(=O)N[C@@H](CO)Cc4c[nH]cn4)ccc3[nH]2)c1 |  |  |  | > 7.70
COc1ncccc1-c1ccc(O)c(-c2nc3cc(C(=O)N[C@@H](C)Cc4c[nH]cn4)ccc3[nH]2)c1 |  |  |  | < 6.70
O=C(NCCc1c[nH]cn1)c1cc2nc(-c3cc(-c4cccnc4O)ccc3O)[nH]c2cc1Cl |  |  |  | > 7.70
COc1cc(O)c(-c2nc3ccc(C(=O)NCCc4c[nH]cn4)cc3[nH]2)cc1-c1cccnc1OC |  |  |  | 6.70 to 7.70
CCN1CCC2(CCN(CCc3ccc(NC(=O)c4ccc5[nH]c(-c6cc(-c7cccnc7O)ccc6O)nc5c4)cc3)C2)C1 (stereo not drawn) [drawing 1792] |  |  |  | > 7.70
CN1CCCC2(CCCN(CCc3ccc(NC(=O)c4ccc5nc(-c6cc(-c7cccnc7O)ccc6O)[nH]c5c4)cc3)C2)C1 (stereo not drawn) [drawing 1793] |  |  |  | < 6.70
COc1ncccc1-c1ccc(O)c(-c2nc3ccc(C(=O)NCCCCN4CCCC4)cc3[nH]2)c1 [drawing 1800] |  |  |  | > 7.70
COc1ncccc1-c1ccc(O)c(-c2nc3ccc(C(=O)NCCCCN4CCCC4)cc3[nH]2)c1 [drawing 1807] |  |  |  | < 6.70

Further lines, results first:

pIC50 [1] | pIC50 [2] | pIC50 [3] | pIC50 [4] | Structure (SMILES)
≥ 5.30 | 5.00 to 5.30 | < 4.60 |  | COc1ccc2c(c1)CCc1cnc(-n3cc(C(=O)NCCc4c[nH]c5ccccc45)c(N)n3)nc1-2
≥ 5.30 | 5.00 to 5.30 | 5.00 to 5.30 |  | COc1ccc2c(c1)CCc1cnc(-n3cc(C(=O)NCc4nc5ccccc5[nH]4)c(N)n3)nc1-2
≥ 5.30 | 4.82 to 5.00 | 5.00 to 5.30 |  | COc1ccc2c(c1)CCc1cnc(-n3cc(C(=O)Nc4ccc(/C=C/CN5CCN(C)CC5)cc4)c(N)n3)nc1-2
≥ 5.30 | 5.00 to 5.30 | ≥ 5.30 |  | COc1ccc2c(c1)CCc1cnc(-n3cc(C(=O)NC4CCN(CCCc5ccncc5)CC4)c(N)n3)nc1-2
≥ 5.30 | 4.82 to 5.00 | 5.00 to 5.30 |  | CN1CCN(CCc2ccc(NC(=O)c3cn(-c4ncc5c(n4)-c4cc(Cl)ccc4OC5)nc3N)cc2)CC1
≥ 5.30 | < 4.60 |  |  | COc1ccc2c(c1)CCc1cnc(-n3cc(C(=O)Nc4ccc(CCN5CCC(N)CC5)cc4)c(N)n3)nc1-2
≥ 5.30 | 4.82 to 5.00 | 5.00 to 5.30 |  | COc1ccc2c(c1)CCc1cnc(-n3cc(C(=O)Nc4ccc(CCN5CCN6CCC[C@H]6C5)cc4)c(N)n3)nc1-2
≥ 5.30 | 4.82 to 5.00 |  |  | CN1CCN(Cc2ccc(NC(=O)c3ccc4[nH]c(-c5cc(Br)ccc5O)nc4c3)cc2)CC1
≥ 5.30 | 4.82 to 5.00 | 5.00 to 5.30 |  | CN1CCN(c2ccc(NC(=O)c3ccc4nc(-c5ccc6ccccc6c5O)[nH]c4c3)cc2)CC1
≥ 5.30 | 4.82 to 5.00 | 5.00 to 5.30 |  | COc1ccc2c(c1)CCc1cnc(-n3cc(-c4nc5cc(N6CCN(C)CC6)ccc5[nH]4)c(N)n3)nc1-2
≥ 5.30 | 4.82 to 5.00 | 4.82 to 5.00 |  | CN1CCN(c2ccc3nc(-c4nc5ccccc5[nH]4)[nH]c3c2)CC1
≥ 5.30 | 4.82 to 5.00 | 5.00 to 5.30 |  | CN1CCN(c2ccc3nc(-c4cc(-c5ccc(N(C)C)cc5)ccc4O)[nH]c3c2)CC1
≥ 5.30 | 5.00 to 5.30 | ≥ 5.30 |  | COc1ncccc1-c1ccc(O)c(-c2nc3ccc(C(=O)Nc4ccc(CCN5CCN(C)CC5)cc4)cc3[nH]2)c1
≥ 5.30 | < 4.60 | 4.82 to 5.00 |  | CN1CCN(c2ccc3nc(-c4cc(-c5ccccc5)ccc4O)[nH]c3c2)CC1
≥ 5.30 | 4.82 to 5.00 | 4.82 to 5.00 |  | CN1CCN(c2ccc3nc(-c4cc(-c5cccnc5)ccc4O)[nH]c3c2)CC1
≥ 5.30 | 4.82 to 5.00 | < 4.60 |  | CN1CCN(c2ccc3nc(-c4ccc(OCc5ccccc5)cc4O)[nH]c3c2)CC1
≥ 5.30 | 4.82 to 5.00 | 4.82 to 5.00 |  | CN1CCN(c2ccc3nc(-c4ccc(O)c(O)c4O)[nH]c3c2)CC1
 |  |  | 6.70 to 7.70 | CN1CCN(CCc2ccc(NC(=O)c3ccc4nc(-c5cc(-c6cccnc6O)ccc5O)[nH]c4c3)cc2)CC1
 |  |  | < 6.70 | COc1ncccc1-c1ccc(O)c(-c2nc3cc(C(=O)NCc4ccc(CN5CCN(C)CC5)cc4)ccc3[nH]2)c1
 |  |  | < 6.70 | COc1ncccc1-c1ccc(O)c(-c2nc3ccc(C(=O)NCc4ccc5c(c4)CCCN5C)cc3[nH]2)c1
 |  |  | < 6.70 | COc1ncccc1-c1ccc(O)c(-c2nc3ccc(C(=O)NCCCN4CCN(C)CC4)cc3[nH]2)c1
 |  |  | < 6.70 | COc1ncccc1-c1ccc(O)c(-c2nc3ccc(C(=O)Nc4ccc(OCCCN5CCN(C)CC5)cc4)cc3[nH]2)c1
 |  |  | < 6.70 | COc1ncccc1-c1ccc(O)c(-c2nc3ccc(C(=O)Nc4ccc(OCCN5CCN(C)CC5)cc4)cc3[nH]2)c1
 |  |  | 6.70 to 7.70 | COc1ncccc1-c1ccc(O)c(-c2nc3ccc(C(=O)Nc4ccc(CCN5CCN(c6ccncc6)CC5)cc4)cc3[nH]2)c1
 |  |  | 6.70 to 7.70 | CN1CCN(CCc2ccc(NC(=O)c3cc4nc(-c5cc(-c6cccnc6O)ccc5O)[nH]c4cc3Cl)cc2)CC1
